How the values were obtained:
Assay type in all cases: in vivo
[1] = tested on: oat, wild (wild oat, Avena fatua); experiment: Test C preemergence, wild oat; conditions: 0 is no effect, 100 is complete control
Method in brief: (§1)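 Visual injury rating, 0 (no effect) to 100 (complete control), versus untreated controls after 10 or 12 days in the greenhouse. Compounds were formulated in non-phytotoxic solvent plus surfactant and applied either as a directed soil spray at sowing or onto emerged one- to two-leaf plants.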

[2] = tested on: foxtail, giant (giant foxtail, Setaria faberi); experiment: Test C postemergence, giant foxtail; conditions: for Foxtail, Giant plant response rating: 31 g ai/ha Postemergence, visual injury, 0 to 100 scale (0 no effect, 100 complete control); for Plant response rating (0 to 100 scale), Foxtail, Giant: 125 g ai/ha Postemergence, 0 is no effect, 100 is complete control
[3] = tested on: barnyardgrass (Echinochloa crusgalli); experiment: Test D flooded paddy test, barnyardgrass; set-up: key: 0 = no effect, 100 = complete control; conditions: 250 g ai/ha, Flood; applied to paddy water at 2-leaf stage; visual rating after 13 days; scale 0 (no effect) to 100 (complete control)
Method in brief: (§2)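 Visual response scores run 0 (no effect) to 100 (complete control), judged against controls 13 days after treatment. Compounds were added to paddy water 3 cm deep over soil, around plants at the 2-leaf stage kept in a greenhouse.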

[4] = tested on: ragweed (common ragweed, Ambrosia artemisiifolia); experiment: Test C postemergence, ragweed; conditions: for Ragweed plant response rating: 31 g ai/ha Postemergence, visual injury, 0 to 100 scale (0 no effect, 100 complete control); for Plant response rating (0 to 100 scale), Ragweed: 125 g ai/ha Postemergence, 0 is no effect, 100 is complete control
Method in brief: as §1

[5] = tested on: sedge, umbrella (small-flower umbrella sedge, Cyperus difformis); experiment: Test D flooded paddy test, umbrella sedge; set-up: key: 0 = no effect, 100 = complete control; conditions: 250 g ai/ha, Flood; applied to paddy water at 2-leaf stage; visual rating after 13 days; scale 0 (no effect) to 100 (complete control)
Method in brief: as §2

kochia (Bassia scoparia) = experiment: Test C preemergence, kochia; conditions: 0 is no effect, 100 is complete control
Method in brief: as §1

[6] = tested on: ryegrass, Italian (Italian ryegrass, Lolium multiflorum); experiment: Test C preemergence, Italian ryegrass; conditions: 0 is no effect, 100 is complete control
Method in brief: as §1

corn (Zea mays) = experiment: Test C postemergence, corn; conditions: for Corn plant response rating: 31 g ai/ha Postemergence, visual injury, 0 to 100 scale (0 no effect, 100 complete control); for Plant response rating (0 to 100 scale), Corn: 125 g ai/ha Postemergence, 0 is no effect, 100 is complete control
[7] = tested on: blackgrass (Alopecurus myosuroides); experiment: Test C preemergence, blackgrass; conditions: 0 is no effect, 100 is complete control
Method in brief: as §1

| SMILES | Plant response rating (0 to 100 scale), Oat, Wild ([1]; 31 g ai/ha Preemergence) | Plant response rating (0 to 100 scale), Oat, Wild ([1]; 125 g ai/ha Preemergence) | Foxtail, Giant plant response rating [2] | Plant response rating (0 to 100 scale), Foxtail, Giant [2] | Plant response rating, Barnyardgrass [3] | Ragweed plant response rating [4] | Plant response rating (0 to 100 scale), Ragweed [4] | Plant response rating, Sedge, Umbrella [5] | Plant response rating (0 to 100 scale), Kochia (kochia (Bassia scoparia); 31 g ai/ha Preemergence) | Plant response rating (0 to 100 scale), Kochia (kochia (Bassia scoparia); 125 g ai/ha Preemergence) | Plant response rating (0 to 100 scale), Ryegrass, Italian ([6]; 31 g ai/ha Preemergence) | Plant response rating (0 to 100 scale), Ryegrass, Italian ([6]; 125 g ai/ha Preemergence) | Corn plant response rating (corn (Zea mays)) | Plant response rating (0 to 100 scale), Corn (corn (Zea mays)) | Plant response rating (0 to 100 scale), Blackgrass ([7]; 31 g ai/ha Preemergence) | Plant response rating (0 to 100 scale), Blackgrass ([7]; 125 g ai/ha Preemergence) |
| --- | --- | --- | --- | --- | --- | --- | --- | --- | --- | --- | --- | --- | --- | --- | --- | --- |
| C=CCO/N=C1\CCN(c2cc(NS(=O)(=O)C(F)(F)F)c(C)cc2C)C1=O [Compound 11] | 30 | 100 | 60 | 90 | 25 | 60 | 80 | 100 | 80 | 100 | 40 | 90 | 90 | 100 | 60 | 100 |
| C#CCO/N=C1\CCN(c2cc(NS(=O)(=O)C(F)(F)F)c(C)cc2C)C1=O [Compound 13, N-[2,4-dimethyl-5-[2-oxo-3-[(2-propyn-1-yloxy)imino]-1-pyrrolidinyl]phenyl]-1,1,1-trifluoromethanesulfonamide] | 100 | 100 | 60 | 90 | 10 | 80 | 90 | 100 | 100 | 100 | 40 | 100 | 100 | 100 | 90 | 100 |
| Cc1cc(C)c(N2CCC(O)C2=O)cc1NS(=O)(=O)C(F)(F)F (stereo not drawn) [Compound 14] | 10 | 60 | 20 | 90 | 0 | 60 | 80 | 35 | 50 | 100 | 40 | 100 | 70 | 90 | 60 | 90 |
| COC(=O)N(c1cc(N2CCC(OC3CC3)C2=O)c(C)cc1C)S(=O)(=O)C(F)(F)F (stereo not drawn) [Compound 16] | 0 | 0 | 0 | 0 | 0 | 80 | 90 | 0 | 0 | 0 | 0 | 0 | 0 | 0 | 0 | 0 |
| Cc1cc(C)c(N(C(=O)OC(C)C)S(=O)(=O)C(F)(F)F)cc1N1CCC(OC2CC2)C1=O (stereo not drawn) [Compound 18] | 0 | 0 | 0 | 0 | 0 | 0 | 50 | 0 | 0 | 60 | 0 | 0 | 0 | 0 | 0 | 0 |
| CCOC(=O)N(c1cc(N2CCC(OC3CC3)C2=O)c(C)cc1C)S(=O)(=O)C(F)(F)F (stereo not drawn) [Compound 19] | 0 | 40 | 0 | 20 | 0 | 60 | 90 | 0 | 0 | 70 | 0 | 0 | 0 | 20 | 0 | 40 |
| CCCC(=O)OCN(c1cc(N2CCC(OC3CC3)C2=O)c(C)cc1C)S(=O)(=O)C(F)(F)F (stereo not drawn) [Compound 20] | 60 | 100 | 80 | 90 | 90 | 80 | 90 | 98 | 80 | 100 | 100 | 100 | 90 | 90 | 80 | 100 |
| Cc1cc(C)c(N2CCC(OCC3CC3)C2=O)cc1NS(=O)(=O)C(F)(F)F (stereo not drawn) [Compound 22] | 90 | 100 | 20 | 60 | 90 | 60 | 80 | 95 | 90 | 100 | 100 | 100 | 50 | 90 | 50 | 90 |
| Cc1c(N2CCC(OC3CC3)C2=O)cc(N(COC(=O)C(C)(C)C)S(=O)(=O)C(F)(F)F)c(C)c1F (stereo not drawn) [Compound 23] | 40 | 90 | 0 | 80 | 95 | 90 | 90 | 95 | 20 | 90 | 30 | 100 | 30 | 90 | 0 | 10 |

Source: patent US20240158348A1, “HERBICIDAL CYCLIC AMIDES N-SUBSTITUTED WITH A HALOALKYLSULFONYLANILIDE GROUP” (FMC Corporation, priority 2021, published 2024)
